Measurements as given in PubChem BioAssay (NCI).
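Five compound concentrations were applied to cells in 96-well plates for 48 hours; endpoints were derived by simple linear interpolation of the resulting dose-response curve. TGI: concentration producing complete growth inhibition.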

Legend:
Experiment in all cases: DTP human tumour cell line panel, 48 h
786-0 renal = tested on: 786-0 renal
A498 renal = tested on: A498 renal
A549 NSCLC = tested on: A549 NSCLC
ACHN renal = tested on: ACHN renal
BT-549 breast = tested on: BT-549 breast
CAKI-1 renal = tested on: CAKI-1 renal
CCRF-CEM leukemia = tested on: CCRF-CEM leukemia
COLO 205 colon = tested on: COLO 205 colon
DU-145 prostate = tested on: DU-145 prostate
EKVX NSCLC = tested on: EKVX NSCLC
HCC-2998 colon = tested on: HCC-2998 colon
HCT-116 colon = tested on: HCT-116 colon
HCT-15 colon = tested on: HCT-15 colon
HL-60(TB) leukemia = tested on: HL-60(TB) leukemia
HOP-62 NSCLC = tested on: HOP-62 NSCLC
HOP-92 NSCLC = tested on: HOP-92 NSCLC
HS 578T breast = tested on: HS 578T breast
HT29 colon = tested on: HT29 colon
IGROV1 ovarian = tested on: IGROV1 ovarian
K-562 leukemia = tested on: K-562 leukemia
KM12 colon = tested on: KM12 colon
LOX IMVI melanoma = tested on: LOX IMVI melanoma
M14 melanoma = tested on: M14 melanoma
MALME-3M melanoma = tested on: MALME-3M melanoma
MCF7 breast = tested on: MCF7 breast
MDA-MB-231 breast = tested on: MDA-MB-231 breast
MDA-MB-435 = tested on: MDA-MB-435
MDA-N = tested on: MDA-N
MOLT-4 leukemia = tested on: MOLT-4 leukemia
NCI-H226 lung = tested on: NCI-H226 lung
NCI-H23 lung = tested on: NCI-H23 lung
NCI-H460 lung = tested on: NCI-H460 lung
NCI-H522 lung = tested on: NCI-H522 lung
NCI/ADR-RES ovarian = tested on: NCI/ADR-RES ovarian
OVCAR-3 ovarian = tested on: OVCAR-3 ovarian
OVCAR-4 ovarian = tested on: OVCAR-4 ovarian
OVCAR-5 ovarian = tested on: OVCAR-5 ovarian
OVCAR-8 ovarian = tested on: OVCAR-8 ovarian
PC-3 prostate = tested on: PC-3 prostate
RPMI-8226 leukemia = tested on: RPMI-8226 leukemia
RXF 393 renal = tested on: RXF 393 renal
SF-268 CNS = tested on: SF-268 CNS
SF-295 CNS = tested on: SF-295 CNS
SF-539 CNS = tested on: SF-539 CNS
SK-MEL-2 melanoma = tested on: SK-MEL-2 melanoma
SK-MEL-28 melanoma = tested on: SK-MEL-28 melanoma
SK-MEL-5 melanoma = tested on: SK-MEL-5 melanoma
SK-OV-3 ovarian = tested on: SK-OV-3 ovarian
SN12C renal = tested on: SN12C renal
SNB-19 CNS = tested on: SNB-19 CNS
SNB-75 CNS = tested on: SNB-75 CNS
SR leukemia = tested on: SR leukemia
SW-620 colon = tested on: SW-620 colon
T-47D breast = tested on: T-47D breast
TK-10 renal = tested on: TK-10 renal
U251 CNS = tested on: U251 CNS
UACC-257 melanoma = tested on: UACC-257 melanoma
UACC-62 melanoma = tested on: UACC-62 melanoma
UO-31 renal = tested on: UO-31 renal

`Cc1cn(C2OC(CO)C(O)C2O)c(=O)[nH]c1=O` (configuration not stated) was tested, and the TGI (786-0 renal) was over 1000 µM, the TGI (A498 renal) was over 1000 µM and the TGI (A549 NSCLC) was over 1000 µM. The TGI (ACHN renal) was over 1000 µM, the TGI (BT-549 breast) was over 1000 µM and the TGI (CAKI-1 renal) was over 1000 µM. For the same molecule, the TGI (CCRF-CEM leukemia) was over 1000 µM, the TGI (COLO 205 colon) was over 1000 µM and the TGI (DU-145 prostate) was over 1000 µM. It also gave a TGI (EKVX NSCLC) of over 1000 µM, a TGI (HCC-2998 colon) of over 1000 µM and a TGI (HCT-116 colon) of over 1000 µM. For the same molecule, the TGI (HCT-15 colon) was over 1000 µM, the TGI (HL-60(TB) leukemia) was over 1000 µM and the TGI (HOP-62 NSCLC) was over 1000 µM. The TGI (HOP-92 NSCLC) was over 1000 µM, the TGI (HS 578T breast) was over 1000 µM and the TGI (HT29 colon) was over 1000 µM. The TGI (IGROV1 ovarian) was over 1000 µM, the TGI (K-562 leukemia) was over 1000 µM and the TGI (KM12 colon) was over 1000 µM. The TGI (LOX IMVI melanoma) was over 1000 µM, the TGI (M14 melanoma) was over 1000 µM and the TGI (MALME-3M melanoma) was over 1000 µM. The TGI (MCF7 breast) was over 1000 µM, the TGI (MDA-MB-231 breast) was over 1000 µM and the TGI (MDA-MB-435) was over 1000 µM. It also gave a TGI (MDA-N) of over 1000 µM, a TGI (MOLT-4 leukemia) of over 1000 µM and a TGI (NCI-H226 lung) of over 1000 µM. The TGI (NCI-H23 lung) was over 1000 µM, the TGI (NCI-H460 lung) was over 1000 µM and the TGI (NCI-H522 lung) was over 1000 µM. The TGI (NCI/ADR-RES ovarian) was over 1000 µM, the TGI (OVCAR-3 ovarian) was over 1000 µM and the TGI (OVCAR-4 ovarian) was over 1000 µM. For the same molecule, the TGI (OVCAR-5 ovarian) was over 1000 µM, the TGI (OVCAR-8 ovarian) was over 1000 µM and the TGI (PC-3 prostate) was over 1000 µM. The TGI (RPMI-8226 leukemia) was over 1000 µM, the TGI (RXF 393 renal) was over 1000 µM and the TGI (SF-268 CNS) was over 1000 µM. The TGI (SF-295 CNS) was over 1000 µM, the TGI (SF-539 CNS) was over 1000 µM and the TGI (SK-MEL-2 melanoma) was over 1000 µM. It also gave a TGI (SK-MEL-28 melanoma) of over 1000 µM, a TGI (SK-MEL-5 melanoma) of over 1000 µM and a TGI (SK-OV-3 ovarian) of over 1000 µM. It also gave a TGI (SN12C renal) of over 1000 µM, a TGI (SNB-19 CNS) of over 1000 µM and a TGI (SNB-75 CNS) of over 1000 µM. It also gave a TGI (SR leukemia) of over 1000 µM, a TGI (SW-620 colon) of over 1000 µM and a TGI (T-47D breast) of over 1000 µM. For the same molecule, the TGI (TK-10 renal) was over 1000 µM, the TGI (U251 CNS) was over 1000 µM and the TGI (UACC-257 melanoma) was over 1000 µM. The TGI (UACC-62 melanoma) was over 1000 µM and the TGI (UO-31 renal) was over 1000 µM.

For `Cc1ccc(-c2cc(-c3cc(-c4ccc(C)cc4C)n[nH]3)[nH]n2)c(C)c1`, the TGI (786-0 renal) was 26.2 µM, the TGI (A498 renal) was 34.1 µM and the TGI (A549 NSCLC) was over 52.4 µM. The TGI (ACHN renal) was 24.4 µM, the TGI (BT-549 breast) was 42.7 µM and the TGI (CAKI-1 renal) was 36.2 µM. For the same molecule, the TGI (CCRF-CEM leukemia) was 8.45 µM, the TGI (COLO 205 colon) was over 62 µM and the TGI (DU-145 prostate) was 33.1 µM. It also gave a TGI (EKVX NSCLC) of 46 µM, a TGI (HCC-2998 colon) of 28.9 µM and a TGI (HCT-116 colon) of 33 µM. The TGI (HCT-15 colon) was 44.8 µM, the TGI (HL-60(TB) leukemia) was 0.0792 µM and the TGI (HOP-62 NSCLC) was 30.2 µM. It also gave a TGI (HOP-92 NSCLC) of 39 µM, a TGI (HS 578T breast) of 44.6 µM and a TGI (HT29 colon) of 35.1 µM. It also gave a TGI (IGROV1 ovarian) of 28.6 µM, a TGI (K-562 leukemia) of 37.4 µM and a TGI (KM12 colon) of 49 µM. It also gave a TGI (LOX IMVI melanoma) of 38.4 µM, a TGI (M14 melanoma) of 40.3 µM and a TGI (MALME-3M melanoma) of 25 µM. It also gave a TGI (MCF7 breast) of 38.8 µM, a TGI (MDA-MB-231 breast) of 32.8 µM and a TGI (MDA-MB-435) of 31.1 µM. The TGI (MDA-N) was 34.1 µM, the TGI (MOLT-4 leukemia) was 36.8 µM and the TGI (NCI-H226 lung) was 42.9 µM. The TGI (NCI-H23 lung) was 41.9 µM, the TGI (NCI-H460 lung) was 21.4 µM and the TGI (NCI-H522 lung) was 30.3 µM. The TGI (NCI/ADR-RES ovarian) was 43 µM, the TGI (OVCAR-3 ovarian) was 26.9 µM and the TGI (OVCAR-4 ovarian) was 29.1 µM. For the same molecule, the TGI (OVCAR-5 ovarian) was 59 µM, the TGI (OVCAR-8 ovarian) was 43.1 µM and the TGI (PC-3 prostate) was 29.2 µM. It also gave a TGI (RPMI-8226 leukemia) of 10.5 µM, a TGI (RXF 393 renal) of 32.7 µM and a TGI (SF-268 CNS) of 27.5 µM. The TGI (SF-295 CNS) was 26.5 µM, the TGI (SF-539 CNS) was 34 µM and the TGI (SK-MEL-2 melanoma) was 36.2 µM. The TGI (SK-MEL-28 melanoma) was 32.4 µM, the TGI (SK-MEL-5 melanoma) was 56.2 µM and the TGI (SK-OV-3 ovarian) was 29.4 µM. It also gave a TGI (SN12C renal) of 30.7 µM, a TGI (SNB-19 CNS) of 41.2 µM and a TGI (SNB-75 CNS) of 34.8 µM. For the same molecule, the TGI (SR leukemia) was 26.5 µM, the TGI (SW-620 colon) was 33.1 µM and the TGI (T-47D breast) was over 74.4 µM. The TGI (TK-10 renal) was 29.4 µM, the TGI (U251 CNS) was 27.6 µM and the TGI (UACC-257 melanoma) was 26.7 µM. It also gave a TGI (UACC-62 melanoma) of over 62 µM and a TGI (UO-31 renal) of 45.7 µM.

`N=C(N)CCNC(=O)C1CCC(N)=N1` (configuration not stated) was tested, and the TGI (786-0 renal) was over 95.7 µM, the TGI (A498 renal) was 85.9 µM and the TGI (A549 NSCLC) was over 61.2 µM. The TGI (ACHN renal) was over 100 µM, the TGI (BT-549 breast) was over 100 µM and the TGI (CAKI-1 renal) was over 100 µM. The TGI (CCRF-CEM leukemia) was over 80.5 µM, the TGI (COLO 205 colon) was over 59 µM and the TGI (DU-145 prostate) was over 65.6 µM. It also gave a TGI (EKVX NSCLC) of over 89.7 µM, a TGI (HCC-2998 colon) of over 36.2 µM and a TGI (HCT-116 colon) of over 91 µM. The TGI (HCT-15 colon) was over 100 µM, the TGI (HL-60(TB) leukemia) was over 87.4 µM and the TGI (HOP-62 NSCLC) was over 48.2 µM. For the same molecule, the TGI (HOP-92 NSCLC) was over 67.8 µM, the TGI (HS 578T breast) was 65.5 µM and the TGI (HT29 colon) was over 84.5 µM. The TGI (IGROV1 ovarian) was over 100 µM, the TGI (K-562 leukemia) was over 100 µM and the TGI (KM12 colon) was over 100 µM. The TGI (LOX IMVI melanoma) was over 100 µM, the TGI (M14 melanoma) was 98.1 µM and the TGI (MALME-3M melanoma) was over 61.6 µM. It also gave a TGI (MCF7 breast) of over 100 µM, a TGI (MDA-MB-231 breast) of over 79.3 µM and a TGI (MDA-MB-435) of over 100 µM. For the same molecule, the TGI (MDA-N) was over 100 µM, the TGI (MOLT-4 leukemia) was over 78.8 µM and the TGI (NCI-H226 lung) was over 63.8 µM. It also gave a TGI (NCI-H23 lung) of over 93.3 µM, a TGI (NCI-H460 lung) of over 82.1 µM and a TGI (NCI-H522 lung) of over 92.9 µM. It also gave a TGI (NCI/ADR-RES ovarian) of over 100 µM, a TGI (OVCAR-3 ovarian) of over 41.9 µM and a TGI (OVCAR-4 ovarian) of 81.3 µM. The TGI (OVCAR-5 ovarian) was over 96.6 µM, the TGI (OVCAR-8 ovarian) was over 100 µM and the TGI (PC-3 prostate) was over 64.6 µM. It also gave a TGI (RPMI-8226 leukemia) of over 100 µM, a TGI (RXF 393 renal) of over 94.4 µM and a TGI (SF-268 CNS) of over 93 µM. It also gave a TGI (SF-295 CNS) of over 86.2 µM, a TGI (SF-539 CNS) of over 43.2 µM and a TGI (SK-MEL-2 melanoma) of over 78.7 µM. It also gave a TGI (SK-MEL-28 melanoma) of over 100 µM, a TGI (SK-MEL-5 melanoma) of over 61.9 µM and a TGI (SK-OV-3 ovarian) of over 69.3 µM. For the same molecule, the TGI (SN12C renal) was 68.3 µM, the TGI (SNB-19 CNS) was over 100 µM and the TGI (SNB-75 CNS) was 60.4 µM. For the same molecule, the TGI (SR leukemia) was over 100 µM, the TGI (SW-620 colon) was over 100 µM and the TGI (T-47D breast) was over 59.7 µM. It also gave a TGI (TK-10 renal) of over 90.4 µM, a TGI (U251 CNS) of over 100 µM and a TGI (UACC-257 melanoma) of over 81.1 µM. It also gave a TGI (UACC-62 melanoma) of over 100 µM and a TGI (UO-31 renal) of over 80.1 µM.
